{"source": "patent US20080020059A1", "about": "“COMPOSITIONS AND METHODS FOR TOPICAL TREATMENT OF SKIN INFECTION” (CHIOU CONSULTING, INC., priority 2003, published 2008)", "origin": "cited, not measured here", "system": "acne", "settings": "after 12 weeks of treatment"}
{"compound": "CC[C@H]1OC(=O)[C@H](C)[C@@H](O[C@H]2C[C@@](C)(OC)[C@@H](O)[C@H](C)O2)[C@H](C)[C@@H](O[C@@H]2O[C@H](C)C[C@H](N(C)C)[C@H]2O)[C@](C)(O)C[C@@H](C)C(=O)[C@H](C)[C@@H](O)[C@]1(C)O", "note": "[erythromycin]", "values": [{"measurement": "patients showing satisfactory responses", "value": "about 50%"}]}
